Data: publication PMC9607081 (Membranes, 2022)

Assays:
[1] = molecular target: human GlyR α1 subunit P230 (M1) substituted with Vah (Homo sapiens, UniProt P23415); conditions: Table 2, n = 4
Method: (§1) The cDNA for the human GlyR α1 subunit was in pGEMHE (ThermoFischer Scientific, Bishops Stortford, UK). Site-directed mutagenesis was performed using QuikChange (Agilent Technologies, Milton Keynes, UK) to generate the appropriate codon. For non-canonical amino acid mutants and conventional mutants generated by nonsense suppression, the site of interest was mutated to the TAG stop codon. Receptor mRNA was then prepared by in vitro runoff transcription using the Ambion T7 mMessage mMachine kit (ThermoFischer Scientific, Bishops Stortford, UK). Noncanonical amino acids were ligated to tRNA as previously described.
(§2) Stage V-VI oocytes of Xenopus laevis were harvested and injected with RNAs as described previously. For nonsense suppression experiments, each cell was injected with 50–100 ng each of receptor mRNA and tRNA charged with the appropriate Pro analogue ~48 h before recording. For wild type and conventional mutants, each cell received a single injection of 10–25 ng of receptor mRNA ~24 h before recording. Injection volumes were 50–100 nL per cell.
(§3) As a negative control for suppression experiments at each site, unligated tRNA was co-injected with mRNA in the same manner as charged tRNA. […] Pro recovery (injecting tRNA charged with Pro to regenerate a wild type channel via nonsense suppression) was used alongside Pro analogues as a positive control.
(§4) Two-electrode voltage clamping of Xenopus oocytes was performed using standard electrophysiological procedures as previously, using an OpusXpress system (Axon Instruments, Inc., Union City, CA, USA). All experiments were performed at 22–25 °C. […] The holding potential was −60 mV unless otherwise specified. […] Data were analysed using Prism (GraphPad Software Inc., San Diego, CA, USA), fitting concentration-response data to the four-parameter logistic equation. Statistical analysis was performed using ANOVA with a Dunnett’s multiple comparisons post test.

[2] = test system: human GlyR α1 subunit P96 (loopA) substituted with 3MeP; conditions: Table 2, P96 3MeP, n = 4
Method: as §1, §2, §3, §4

[3] = molecular target: human GlyR α1 subunit P96 (loopA) substituted with Pro (Homo sapiens, UniProt P23415); conditions: Table 2, n = 5
Method: as §1, §2, §3, §4

[4] = molecular target: human GlyR α1 subunit P230 (M1) substituted with Pro (Homo sapiens, UniProt P23415); conditions: Table 2, n = 4
Method: as §1, §2, §3, §4

[5] = test system: human GlyR α1 subunit P230 (M1) substituted with TFP
Method: as §1, §2, §3, §4

[6] = test system: human GlyR α1 subunit P230 (M1) substituted with 3MeP; conditions: Table 2, P230 3MeP, n = 4
Method: as §1, §2, §3, §4

[7] = test system: human GlyR α1 subunit P30 (α1β1L) substituted with Vah
Method: as §1, §2, §3, §4

[8] = test system: human GlyR α1 subunit P96 (loopA) substituted with Vah
Method: as §1, §2, §3, §4

[9] = molecular target: T1, human GlyR α1 subunit P30A (Homo sapiens, UniProt P23415, P58A); assay: Two-electrode voltage clamp of Xenopus oocytes expressing P30A GlyR; format: cell-based; conditions: n = 5
T1 construct: expressed in transfected cells; host or cells: Xenopus laevis oocytes injected with receptor mRNA
Method: Injection volumes were 50–100 nL per cell.
All experiments were performed at 22–25 °C. […] The holding potential was −60 mV unless otherwise specified.

[10] = Table 2, nonsense suppression, n = 4

T1 sequence (P23415 29-457 P58A): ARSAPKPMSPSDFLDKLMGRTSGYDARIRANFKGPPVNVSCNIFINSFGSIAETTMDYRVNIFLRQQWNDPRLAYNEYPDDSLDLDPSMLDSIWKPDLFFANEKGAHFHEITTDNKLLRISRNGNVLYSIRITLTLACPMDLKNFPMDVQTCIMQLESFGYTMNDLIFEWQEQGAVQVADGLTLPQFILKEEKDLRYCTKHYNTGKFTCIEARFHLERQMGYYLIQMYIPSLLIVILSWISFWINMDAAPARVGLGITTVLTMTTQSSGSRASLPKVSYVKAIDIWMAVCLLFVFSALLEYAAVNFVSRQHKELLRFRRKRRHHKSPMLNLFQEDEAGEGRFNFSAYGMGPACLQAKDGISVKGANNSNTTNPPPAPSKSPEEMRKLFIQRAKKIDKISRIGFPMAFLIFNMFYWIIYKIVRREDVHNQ
Chain of human GlyR α1 subunit P230 (M1) substituted with Vah (P23415 29-250 limits assumed): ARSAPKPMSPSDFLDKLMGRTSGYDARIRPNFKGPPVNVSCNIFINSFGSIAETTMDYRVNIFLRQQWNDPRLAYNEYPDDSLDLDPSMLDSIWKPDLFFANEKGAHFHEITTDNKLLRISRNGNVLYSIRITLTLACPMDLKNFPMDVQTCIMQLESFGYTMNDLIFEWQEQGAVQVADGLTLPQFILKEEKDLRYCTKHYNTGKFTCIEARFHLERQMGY
Chain of human GlyR α1 subunit P96 (loopA) substituted with Pro (P23415 29-457): as the sequence (P23415 29-457 P58A) above, with A30P counted along it
Chain of human GlyR α1 subunit P230 (M1) substituted with Pro (P23415 29-457): as the sequence (P23415 29-457 P58A) above, with A30P counted along it

Structure (SMILES) | nH [1] | nH [2] | EC50 ([2]; nonsense suppression) [µM] | pEC50 ([2]; nonsense suppression) [M] | nH [3] | nH [4] | nH ([5]; Table 2, n = 4) | EC50 [5, 10] [µM] | pEC50 [5, 10] [M] | nH [6] | EC50 ([6]; nonsense suppression) [µM] | pEC50 ([6]; nonsense suppression) [M] | nH ([7]; Table 2, n = 4) | EC50 [7, 10] [µM] | pEC50 [7, 10] [M] | nH ([8]; Table 2, n = 4) | EC50 [8, 10] [µM] | pEC50 [8, 10] [M] | EC50 [9] [µM] | ImaxTau/ImaxGly [9] [%]
NCC(=O)O [Gly, glycine] | 2.6 ± 0.4 | 3.0 ± 0.2 | 514 | 3.289 ± 0.02 | 2.7 ± 1.1 | 2.5 ± 0.9 | 3.0 ± 1.4 | 125 | 3.904 ± 0.06 | 1.1 ± 0.4 | 34 | 4.471 ± 0.08 | 3.8 ± 0.5 | 21 | 4.684 ± 0.03 | 1.5 ± 0.3 | 94 | 4.029 ± 0.05 |  | 
NCCS(=O)(=O)O [Tau, taurine] |  |  |  |  |  |  |  |  |  |  |  |  |  |  |  |  |  |  | 1230 | 60 ± 5
